Molecules are shown by their SMILES.

Data on two compounds can be found in US20260103471A1, “CYCLIC UREA THIAZOLYL COMPOUNDS FOR TREATMENT OF HSV” (Assembly Biosciences, Inc., priority 2022, published 2026).

One assay concerns HSV-1. Put plainly: HSV-1 Antiviral Assay (Vero cells, cell viability). The format is cell-based. The method, boiled down:
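Vero cells (2.5×10^3/well) received 8-point 3-fold compound dilutions in 2% FBS medium (0.5% DMSO), then 80 TCID50 HSV-1. After 4 days at 37 °C, cell viability was measured by CellTiter-Glo luminescence.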

The subject of a further assay is HSV-2 G strain. Put plainly: HSV-2 Antiviral Assay (Vero cells, cell viability). The format is cell-based. The method, boiled down:
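Vero cells (1.0×10^4/well, attached overnight) given 8-point 3-fold compound dilutions (0.5% DMSO) then infected with 160 TCID50 HSV-2 G strain in 2% FBS medium for 5 days at 37 °C. Protection read as cell viability by WST-8 absorbance at 460 and 620 nm after 3 h.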

The next assay deals with HSV. To be noted: long-term suppressive treatment; cited from earlier work.
Setting [1] is: ratio of EC50 vs Example 87 in WO2001047904.

Take `Cc1nc(N(C)C(=O)N(C)c2ccc(-c3cc(F)ccc3F)cc2)sc1S(N)(=O)=O` [Reference Compound A, reference compound]: the EC50 with HSV-1 (Human alphaherpesvirus 1, 96 h, Vero cells, 4 days, read-out: HSV-1 EC50) was 844 nM; in the assay with HSV-2 G strain (Human alphaherpesvirus 2, Vero, 120 h, Vero cells, 5 days) it was 925 nM. Also, the “fold less active than Example 5 in the HSV-1 assay” value in the assay with HSV-1 (ratio of EC50 vs Example 5) is reported as 44 fold. Moreover, in the assay on HSV-1 (setting [1]), the “fold less active than acyclic amide analog Example 87 in the HSV-1 assay” value worked out at 50 fold. Moreover, in the assay with HSV-2 G strain (ratio of EC50 vs Example 5), the “fold less active than Example 5 in the HSV-2 assay” value turned out to be 92 fold. Moreover, the “fold less active than acyclic amide analog Example 87 in the HSV-2 assay” value in the assay on HSV-2 G strain (setting [1]) was 54 fold.

`CC(C)[C@H](N)C(=O)OCCOCn1cnc2c(=O)[nH]c(N)nc21` [valacyclovir]: in the assay with HSV, the reduce transmission risk is given as 46%.

A word on the EC50: it is the concentration at which the effect is half-maximal.
